The values that follow come from article PMC6927504, “Screening of House Dust from Chinese Homes for Chemicals with Liver X Receptors Binding Activities and Characterization of Atherosclerotic Activity Using an in Vitro Macrophage Cell Line and ApoE^−/− Mice” (Environmental Health Perspectives, 2019).

One data set has as its target T1, human LXRα (Homo sapiens, UniProt Q13133).
T1 construct: expressed in transfected cells; host or cells: Saccharomyces cerevisiae Y187
T1 sequence (Q13133 205-447): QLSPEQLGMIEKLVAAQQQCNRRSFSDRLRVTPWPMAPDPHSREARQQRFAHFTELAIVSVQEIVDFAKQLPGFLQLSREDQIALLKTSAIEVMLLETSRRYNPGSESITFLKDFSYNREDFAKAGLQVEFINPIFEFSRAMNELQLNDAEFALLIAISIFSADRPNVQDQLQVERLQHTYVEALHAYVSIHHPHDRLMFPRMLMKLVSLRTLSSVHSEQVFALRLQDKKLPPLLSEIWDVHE
Description: cell-based.

In another data set the test system is ApoE−/− mice. The data set can be described thus: Immunofluorescence staining of aortic root sections (MOMA-2, SMCα-Actin) in ApoE−/− mice. The format is in vivo, mouse. As to conditions: 13 weeks. From the text:
All experiments related to animals were approved by the institutional animal care and use committee of Peking University and followed the guidelines for animal experiments of the university as well as for experimental animals in China. The biological effect size of the animal experiments was based on the previous paper ([Negro Silva et al. 2017]). C57BL/6 (12 weeks old) and ApoE^−/− mice (12 weeks old) were obtained from the Beijing Vital River Laboratory Animal Technology Company. Mice used in the experiments were acclimated to the housing unit 2 weeks before they were used for experiments, and they were randomly assigned to control or TPHP treatment groups. Five animals were housed to a cage, and mice were acclimatized to the controlled environment (temperature: 22±2°C; relative humidity: 40–60%; artificial lighting: 12 h:12 h light/dark). Mice received diet and drinking water ad libitum. Body weight (BW) was measured every week during the dosing period. Forty-five C57BL/6 mice and 27 ApoE^−/− mice were used in this study. Animal protocol 1: Male C57BL/6 mice (five mice per group) were fed a basic diet (Laboratory Animal Center of the Academy of Military Medical Sciences, China). On Day 0, mice were stimulated with paraffin oil by intraperitoneal injection. From Day 1 to Day 7, mice were exposed to corn oil (control) or TPHP (dissolved in corn oil) at 40 or 200mg/kg BW by daily oral gavage. The volume of the corn oil or TPHP in corn oil administered was 5mL/kg BW. On Day 8, after the mice were anesthetized by sodium pentobarbital via intramuscular injection, peritoneal macrophages were harvested from peritoneal lavage with 4mL pre-warmed DMEM-F12 (containing 10% FBS) using a 25-gauge needle; 5–10 min later, 3–3.5mL peritoneal fluid was collected, and the cells were isolated by centrifuge at 1,000 rpm for 5 min. […] Considering that this study assessed the effects of short-term exposure to TPHP, whereas humans are exposed to TPHP over a lifelong period, the present study used exposure doses that were higher than that of human exposure from house dust. […]

The test system of the next data set is ABCG1. The data set can be described thus: qRT-PCR of LXR target gene ABCG1 in RAW264.7 macrophages. The conditions noted are these: vehicle-treated cells set to 1. The format is cell-based. As to the method: RAW264.7 cells were obtained from the National Infrastructure of Cell Line Resource of Beijing, China, and the cells used for the experiment were cultured for at least three passages. Dulbecco’s Modified Eagle’s Medium (DMEM)-F12 medium containing 10% fetal bovine serum (FBS) was employed to culture the RAW264.7 cells. RAW264.7 cells were incubated at 37°C with 5% carbon dioxide. The RAW264.7 cells were plated at 2.5×10^5 cells/well (6-well plates), 6.0×10^4 cells/well (24-well plates), and 10^4 cells/well (96-well plates). The RAW264.7 cells were plated and grown overnight; then the medium was removed and fresh DMEM-F12 contained with 0.1% DMSO (control; n=3 ) or TPHP at the concentrations of 1–20,000 nM ( n=3 per group) was added. […] Then the cells were used for the quantitative reverse transcription (qRT)-PCR, cellular cholesterol efflux assay, and foam cell formation experiment.
Total RNA was isolated from RAW264.7 cells and mouse peritoneal macrophages using TRIzol reagent according to the manufacturer’s instructions. Then a Nanovue Plus™ spectrophotometer (GE Healthcare Life Science) was used to analyze the concentration, quality, and purity of the RNA. Total RNA ( 1μg ) was mixed with oligo deoxythymine (dT) ( 1μL ) at 70°C for 5 min and then combined with a mixture containing Moloney murine leukemia virus (MMLV) reverse transcriptase ( 1μL ), deoxy-ribonucleoside triphosphate (dNTP) ( 1.25μL ), Recombinant RNasin® Ribonuclease Inhibitor (Promega) ( 0.65μL ), and MMLV buffer ( 5μL ) at 42°C for 60 min. The SYBR® Green PCR Kit (TOYOBO) was used for RT-PCR analysis. Real-time fluorescence detection was performed using the StepOnePlus™ sequence detection system (Applied Biosystems). […] The following primers were designed and purchased from Sangon Biotech:
• actin: 5′-[…]-3′ and 5′-[…]-3′ ATP-binding cassette transporter A1 (ABCA1): 5′-[…]-3′ and 5′-[…]-3′ • ATP-binding cassette transporter G1 (ABCG1): 5′-[…]-3′ and 5′-[…]-3′.

For the molecule `O=P(Oc1ccccc1)(Oc1ccccc1)Oc1ccccc1` [TPHP, triphenyl phosphate], the IC50 against human LXRα came to 1.48 µM. For the same molecule, at human LXRα (dust standard reference material SRM2585), the “Contribution to the LXRα-antagonist activity of SRM2585” value came out at 33.83%. The “Share of the LXRα-antagonist activity of indoor dust explained by the chemical” value at human LXRα (range over indoor dust samples (Table S4)) is on record as 0.19–51.07%. Moreover, the “Macrophage content (MOMA-2) in aortic root lesions, higher than control” value turned out to be 1.9 fold in the data set with ApoE−/− mice (10 mg/kg BW, p<0.05) and 3.1 fold with ApoE−/− mice (40 mg/kg BW, p<0.01). The “Abundance of SMCs (SMCα-Actin) in the aortic roots versus control” value with ApoE−/− mice (10 and 40 mg/kg BW) was “a significant difference was not found”. The “ABCG1 gene expression relative to control” value with ABCG1 (100 nM, p<0.05) is listed as 0.87±0.05 fold; in the data set on ABCG1 (1,000 nM, p<0.05), 0.80±0.06 fold; in the data set with ABCG1 (5,000 nM, p<0.01), 0.52±0.02 fold; with ABCG1 (10,000 nM, p<0.01), 0.42±0.05 fold; in the data set on ABCG1 (20,000 nM, p<0.01), 0.28±0.02 fold.

One may read the IC50 as the point on the concentration scale where inhibition reaches its midpoint.
